Reference: patent US8614193
Where “and” joins values, the source holds several entries; their conditions need not be identical. Equal values may be shown once. Read-outs that look alike come from different tables or passages of the source.

[1] = disulfide bond, 15-membered ring, I2 (10 eq), CH2Cl2/MeOH 9:1, 0.43 mM

## O=C1C[C@@H](/C=C/CCSC(c2ccccc2)(c2ccccc2)c2ccccc2)OC(=O)CNC(=O)C2(CC2)NC(=O)[C@@H](CSC(c2ccccc2)(c2ccccc2)c2ccccc2)NC(=O)CN1
From (3S,4E)-3-hydroxy-7-(tritylthio)hept-4-enoyl-Gly-dCys(Trt)-Ac3c-Gly-OH, ester bond, 16-membered ring, MNBA/DMAP, CH2Cl2, 0.85 mM
  ring closure, isolated yield: 45%

## O=C1C[C@@H](/C=C/CCSC(c2ccccc2)(c2ccccc2)c2ccccc2)OC(=O)CNC(=O)C2(CC2)NC(=O)[C@@H](CSC(c2ccccc2)(c2ccccc2)c2ccccc2)NC(=O)[C@@H](Cc2cccc(Cl)c2)N1
From (3S,4E)-3-hydroxy-7-(tritylthio)hept-4-enoyl-dPhe(3-Cl)-dCys(Trt)-Acc(1-aminocyclopropanecarbonyl)-Gly-OH, ester bond, 16-membered ring, MNBA/DMAP, CH2Cl2, 1.06 mM
  ring closure, isolated yield: 40%

## (E)-(1S,10S,21R)-7,7-Cyclopropyl-21-pyridin-3-ylmethyl-2-oxa-12,13-dithia-5,8,20,23-tetraaza-bicyclo[8.7.6]tricos-16-ene-3,6,9,19,22-pentaone
Disulfide bond, 15-membered ring, I2 (10 eq), CH2Cl2/MeOH 9:1, 0.35 mM
  ring closure, isolated yield: 24%

## 3-((E)-(1S,10S,21R)-7,7-Dimethyl-3,6,9,19,22-pentaoxo-2-oxa-12,13-dithia-5,8,20,23-tetraaza-bicyclo[8.7.6]tricos-16-en-21-yl)-propionic acid tert-butyl ester
Disulfide bond, 15-membered ring, I2, CH2Cl2/MeOH 9:1, 0.35 mM, 25.0 °C
  ring closure, isolated yield: 81%

## (E)-(1S,10S)-7,7-Cyclopropyl-2-oxa-12,13-dithia-5,8,20,23-tetraaza-bicyclo[8.7.6]tricos-16-ene-3,6,9,19,22-pentaone
Disulfide bond, 15-membered ring, I2, CH2Cl2/MeOH 9:1, 0.2 mM
  ring closure, isolated yield: 53%

## CC(C)(C)OC(=O)CC[C@H]1NC(=O)C[C@@H](/C=C/CCSC(c2ccccc2)(c2ccccc2)c2ccccc2)OC(=O)CC(O)C2(CC2)NC(=O)[C@@H](CSC(c2ccccc2)(c2ccccc2)c2ccccc2)NC1=O (stereo partly drawn)
From (R)-4-{(S)-1-[1-(2-Carboxy-1-hydroxy-ethyl)-cyclopropylcarbamoyl]-2-tritylsulfanyl-ethylcarbamoyl}-4-((E)-(S)-3-hydroxy-7-tritylsulfanyl-hept-4-enoylamino)-butyric acid tert-butyl ester, ester bond, 15-membered ring, MNBA/DMAP, CH2Cl2, 1.07 mM
  ring closure, isolated yield: 56%

## 3-((E)-(1S,10S,21R)-7,7-Cyclopropyl-3,6,9,19,22-pentaoxo-2-oxa-12,13-dithia-5,8,20,23-tetraaza-bicyclo[8.7.6]tricos-16-en-21-yl)-propionic acid tert-butyl ester
Disulfide bond, 15-membered ring, I2, CH2Cl2/MeOH 9:1, 0.4 mM, 25.0 °C
  ring closure, isolated yield: 65%

## (E)-(1S,10S)-7-Isopropyl-21,21-cyclopropyl-2-oxa-12,13-dithia-5,8,20,23-tetraaza-bicyclo[8.7.6]tricos-16-ene-3,6,9,19,22-pentaone
Disulfide bond, 15-membered ring, I2, CH2Cl2/MeOH 9:1
  ring closure, isolated yield: 76%

## CC(C)(C)OC(=O)CC[C@H]1NC(=O)CC(/C=C/CCSC(c2ccccc2)(c2ccccc2)c2ccccc2)OC(=O)CNC(=O)C2(CCC2)NC(=O)C(CSC(c2ccccc2)(c2ccccc2)c2ccccc2)NC1=O (stereo in doubt)
From (3S,4E)-3-hydroxy-7-(tritylthio)hept-4-enoyl-dGlu(tBu)-dCys(Trt)-Ac4c-Gly-OH, ester bond, 16-membered ring, MNBA/DMAP, CH2Cl2/THF, 1.13 mM, 2 steps
  ring closure, isolated yield: 51%

## O=C1CC(/C=C/CCSC(c2ccccc2)(c2ccccc2)c2ccccc2)OC(=O)CNC(=O)C2(CC2)NC(=O)[C@@H](CSC(c2ccccc2)(c2ccccc2)c2ccccc2)NC(=O)[C@@H](Cc2ccncc2)N1 (stereo in doubt)
From (3S,4E)-3-hydroxy-7-(tritylthio)hept-4-enoyl-d4Pal-dCys(Trt)-Acc(1-aminocyclopropanecarbonyl)-Gly-OH, ester bond, 16-membered ring, MNBA/DMAP, CH2Cl2/THF, 0.97 mM, 2 steps
  ring closure, isolated yield: 54%

## CC(C)(C)OC(=O)CC[C@H]1NC(=O)C[C@@H](/C=C/CCSC(c2ccccc2)(c2ccccc2)c2ccccc2)OC(=O)CNC(=O)C2(CC2)NC(=O)[C@@H](CSC(c2ccccc2)(c2ccccc2)c2ccccc2)NC1=O
From (E)-(S)-3-hydroxy-7-tritylsulfanyl-hept-4-enoyl-dGlu(OtBu)-dCys(Trt)-Acc-Gly-OH, ester bond, 16-membered ring, MNBA/DMAP, CH2Cl2/THF, 0.85 mM, 25.0 °C, 2 steps
  ring closure, isolated yield: 29%

## (E)-(1S,10S,21R)-21-Benzyl-7,7-cyclopropyl-2-oxa-12,13-dithia-5,8,20,23-tetraaza-bicyclo[8.7.6]tricos-16-ene-3,6,9,19,22-pentaone
[1]
  ring closure, isolated yield: 81%

## CC(C)(C)OC(=O)CC[C@H]1NC(=O)C[C@@H](/C=C/CCSC(c2ccccc2)(c2ccccc2)c2ccccc2)OC(=O)CNC(=O)C(C)(C)NC(=O)[C@@H](CSC(c2ccccc2)(c2ccccc2)c2ccccc2)NC1=O
From (E)-(S)-3-hydroxy-7-tritylsulfanyl-hept-4-enoyl-dGlu(OtBu)-dCys(Trt)-Aib-Gly-OH, ester bond, 16-membered ring, MNBA/DMAP, CH2Cl2/THF, 0.94 mM, 2 steps
  ring closure, isolated yield: 63%

## O=C1C[C@@H](/C=C/CCSC(c2ccccc2)(c2ccccc2)c2ccccc2)OC(=O)CNC(=O)C2(CC2)NC(=O)[C@@H](CSC(c2ccccc2)(c2ccccc2)c2ccccc2)NC(=O)[C@@H](Cc2ccccc2)N1
From (3S,4E)-3-hydroxy-7-(tritylthio)hept-4-enoyl-dPhe-dCys(Trt)-Acc(1-aminocyclopropanecarbonyl)-Gly-OH, ester bond, 16-membered ring, MNBA/DMAP, CH2Cl2/THF, 0.83 mM, 2 steps
  ring closure, isolated yield: 58%

## CC(C)[C@H]1NC(=O)[C@@H](CSC(c2ccccc2)(c2ccccc2)c2ccccc2)NC(=O)C(C)(C)NC(=O)CC(/C=C/CCSC(c2ccccc2)(c2ccccc2)c2ccccc2)OC(=O)CNC1=O (stereo in doubt)
From (3S,4E)-3-hydroxy-7-(tritylthio)hept-4-enoyl-Aib-dCys(Trt)-dVal-Gly-OH, ester bond, 16-membered ring, MNBA/DMAP, CH2Cl2/THF, 1.0 mM, 2 steps
  ring closure, isolated yield: 47%

## 3-((E)-(1S,10S,21R)-7-cyclobutyl-3,6,9,19,22-pentaoxo-2-oxa-12,13-dithia-5,8,20,23-tetraaza-bicyclo[8.7.6]tricos-16-en-21-yl)-propionic acid tert-butyl ester
Disulfide bond, 15-membered ring, I2, CH2Cl2/MeOH 9:1, 0.46 mM
  ring closure, isolated yield: 93%

## (E)-(1S,10S,21R)-21-(3-Chloro-benzyl)-7,7-cyclopropyl-2-oxa-12,13-dithia-5,8,20,23-tetraaza-bicyclo[8.7.6]tricos-16-ene-3,6,9,19,22-pentaone
Disulfide bond, 15-membered ring, I2, CH2Cl2/MeOH 9:1, 0.19 mM
  ring closure, isolated yield: 32%

## CC(C)[C@@H]1NC(=O)[C@@H](CSC(c2ccccc2)(c2ccccc2)c2ccccc2)NC(=O)C2(CC2)NC(=O)C[C@@H](/C=C/CCSC(c2ccccc2)(c2ccccc2)c2ccccc2)OC(=O)CNC1=O
From (3S,4E)-3-hydroxy-7-(tritylthio)hept-4-enoyl-Ac3c-dCys(Trt)-Val-Gly-OH?, ester bond, 16-membered ring, MNBA/DMAP, CH2Cl2/THF, 0.77 mM, 2 steps
  ring closure, isolated yield: 50%

## 3-((E)-(1S,9S,20R)-5-Hydroxy-6,6-cyclopropyl-3,8,18,21-tetraoxo-2-oxa-11,12-dithia-7,19,22-triaza-bicyclo[7.7.6]docos-15-en-20-yl)-propionic acid tert-butyl ester
Disulfide bond, 15-membered ring, I2, CH2Cl2/MeOH 9:1, 0.39 mM
  ring closure, isolated yield: 32% and 26%

## O=C1C[C@@H](/C=C/CCSC(c2ccccc2)(c2ccccc2)c2ccccc2)OC(=O)CNC(=O)C2(CC2)NC(=O)[C@@H](CSC(c2ccccc2)(c2ccccc2)c2ccccc2)NC(=O)[C@@H](Cc2cccnc2)N1
From (3S,4E)-3-hydroxy-7-(tritylthio)hept-4-enoyl-d3Pal-dCys(Trt)-Acc(1-aminocyclopropanecarbonyl)-Gly-OH?, ester bond, 16-membered ring, MNBA/DMAP, CH2Cl2/THF, 0.67 mM, 2 steps
  ring closure, isolated yield: 96%

## (E)-(1S,10S,21R)-7-cyclopropyl-21-pyridin-4-ylmethyl-2-oxa-12,13-dithia-5,8,20,23-tetraaza-bicyclo[8.7.6]tricos-16-ene-3,6,9,19,22-pentaone
[1]
  ring closure, isolated yield: 2%
